Data: ChEMBL document CHEMBL1127882, “Synthesis of coumarins as subtype-selective inhibitors of monoamine oxidase” (Bioorg Med Chem Lett, 1994)

molecular target: T1, Amine oxidase [flavin-containing] B (Rattus norvegicus, UniProt P19643); assay: In vitro inhibitory activity against monoamine oxidase B (MAO-B) in rat brain homogenate.; assay type: tissue-based
T1 sequence (P19643 whole entry): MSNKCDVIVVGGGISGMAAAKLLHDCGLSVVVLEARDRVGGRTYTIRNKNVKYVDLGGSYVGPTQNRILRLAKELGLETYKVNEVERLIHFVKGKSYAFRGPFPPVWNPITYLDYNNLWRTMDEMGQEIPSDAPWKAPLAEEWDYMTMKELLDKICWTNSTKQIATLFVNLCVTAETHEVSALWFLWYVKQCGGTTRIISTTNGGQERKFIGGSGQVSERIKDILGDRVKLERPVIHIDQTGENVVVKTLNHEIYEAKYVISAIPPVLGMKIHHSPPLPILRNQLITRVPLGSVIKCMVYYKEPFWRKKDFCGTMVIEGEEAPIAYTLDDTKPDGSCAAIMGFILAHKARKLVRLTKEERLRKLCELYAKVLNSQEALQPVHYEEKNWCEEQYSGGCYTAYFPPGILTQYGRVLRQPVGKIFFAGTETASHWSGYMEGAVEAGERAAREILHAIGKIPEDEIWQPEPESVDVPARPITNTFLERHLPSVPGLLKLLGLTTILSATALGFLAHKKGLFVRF

Row | Structure (SMILES) | IC50 [µM]
1 | Cc1nnc(COc2ccc3c(C)c(C)c(=O)oc3c2)o1 | 0.015
2 | CCCCCS(=O)(=O)Oc1ccc2c(C)c(C)c(=O)oc2c1 | 2.2
3 | CCS(=O)(=O)Oc1ccc2c(C)c(C)c(=O)oc2c1 [ESUPRONE] | 5
4 | Cc1c(C)c2ccc(OS(C)(=O)=O)cc2oc1=O | > 10
5 | Cc1c(C)c2ccc(OCc3csc(C(C)C)n3)cc2oc1=O | 0.0014
6 | Cc1c(C)c2ccc(OCc3ccccn3)cc2oc1=O | 0.009

Further lines, results first:

Row | IC50 [µM] | Structure (SMILES)
7 | 10 | Cc1c(C)c2ccc(OC(C)c3ccc(C(C)C)cc3)cc2oc1=O (stereo not given)
8 | > 10 | Cc1c(C)c2ccc(O)cc2oc1=O
9 | 0.0005 | COc1ccc2c(C)c(C)c(=O)oc2c1
10 | > 10 | CCCCCCCCS(=O)(=O)Oc1ccc2c(C)c(C)c(=O)oc2c1
11 | 0.0009 | Cc1c(C)c2ccc(OCc3nnc(C(C)C)s3)cc2oc1=O [ATIBEPRONE]
12 | > 10 | Cc1c(C)c2ccc(OCc3ccc(C(C)C)cc3)c(C)c2oc1=O
13 | 0.0008 | Cc1c(C)c2ccc(OCc3cc(C4CC4)on3)cc2oc1=O

molecular target: T2, Amine oxidase [flavin-containing] A (Rattus norvegicus, UniProt P21396); assay: In vitro inhibitory against monoamine oxidase A (MAO-A) in rat brain homogenate.; assay type: tissue-based
T2 sequence (P21396 whole entry): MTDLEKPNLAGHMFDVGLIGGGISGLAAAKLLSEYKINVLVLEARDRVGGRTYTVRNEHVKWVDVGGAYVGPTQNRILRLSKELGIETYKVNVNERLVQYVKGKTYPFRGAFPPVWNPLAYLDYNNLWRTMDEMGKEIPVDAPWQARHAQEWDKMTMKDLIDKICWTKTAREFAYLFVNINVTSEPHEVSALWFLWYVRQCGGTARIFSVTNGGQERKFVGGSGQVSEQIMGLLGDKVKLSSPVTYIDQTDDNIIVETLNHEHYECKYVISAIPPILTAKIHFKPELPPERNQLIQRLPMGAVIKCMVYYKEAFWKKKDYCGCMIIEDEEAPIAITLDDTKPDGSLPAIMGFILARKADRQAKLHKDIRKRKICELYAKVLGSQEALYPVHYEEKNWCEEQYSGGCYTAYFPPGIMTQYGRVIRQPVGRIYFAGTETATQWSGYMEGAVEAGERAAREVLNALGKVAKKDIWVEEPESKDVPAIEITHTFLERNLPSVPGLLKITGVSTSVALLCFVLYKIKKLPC

Row | Structure (SMILES) | IC50 [µM]
14 | Cc1nnc(COc2ccc3c(C)c(C)c(=O)oc3c2)o1 | 5.6
15 | Cc1c(C)c2ccc(OCc3nc(C(C)C)no3)cc2oc1=O | > 10
16 | CCCCCS(=O)(=O)Oc1ccc2c(C)c(C)c(=O)oc2c1 | 0.016
17 | Cc1c(C)c2ccc(OCc3csc(C(C)C)n3)cc2oc1=O | 10
18 | COc1cc(Br)c2oc(C3CCNCC3)cc2c1 [BROFAROMINE] | 0.005
19 | Cc1c(C)c2ccc(OCc3ccccn3)cc2oc1=O | 1.8

Further lines, results first:

Row | IC50 [µM] | Structure (SMILES)
20 | > 10 | Cc1c(C)c2ccc(OC(C)c3ccc(C(C)C)cc3)cc2oc1=O (stereo not given)
21 | ~10 | Cc1c(C)c2ccc(O)cc2oc1=O
22 | 0.071 | COc1ccc2c(C)c(C)c(=O)oc2c1
23 | > 10 | Cc1c(C)c2ccc(OCc3nnc(C(C)C)s3)cc2oc1=O [ATIBEPRONE]
24 | > 10 | Cc1c(C)c2ccc(OCc3ccc(C(C)C)cc3)c(C)c2oc1=O
25 | 7 | Cc1c(C)c2ccc(OCc3cc(C4CC4)on3)cc2oc1=O
